For experiment [1], the system named is human primary hair follicles (melanocyte stem cells at the bulge area). Briefly: Pigmentation assay on isolated human primary hair follicles in culture, H2O2 stress. The format is cell-based. Particulars: positive control, 3% H2O2. An excerpt:
A novel platform for assaying human primary hair follicles in culture was developed to profile anti-graying potentially active agents (see FIG. 1). Normal human scalp specimens were obtained from various surgeries or from donor and recipient scalp hair derived from plastic surgery. […] Intact human skin specimens were implanted in semi-solid agarose (2% agarose diluted with Williams' medium E (Gibco™) at 1:5 ratio). The hair follicle culture medium was based on Williams' medium E (Gibco™) supplemented with 2 mmol/L L-glutamine, hydrocortisone 10 ng/ml, insulin 10 μg/ml, penicillin 100 U/ml, streptomycin 100 μg/ml, and amphotericin B 25 μg/ml. To maximize the effects of the test formulations and to exclude the variability of delivery ability of the formulations through the epidermis, the test formulations were applied directly at the bulge area of the follicles using the method as follows: (1) tissue preparation and culture for 8-24 hrs. (2) Isolation of individual follicles (3) Vertically embedding in semisolid media (4) Treatment with test formulation/Positive control on the bulge area of the hair follicles (5) Incubation for 24 hrs. (6) 3% H2O2 treatment (7) Incubation for 2 hrs. (8) Repositioning in semisolid media (9) Z-stacking imaging & Analysis on day 1, 3, 7 after H2O2 treatment For the experiment, a total of 602 follicles from 9 different donors were utilized. […]

Experiment [2] relates to ROS in hair follicles. Nature of the experiment: Reactive Oxygen Species (ROS) assay on individual follicles. Particulars: NAC pretreatment, ionizing radiation 4, 8 or 12 Gy or 3% H2O2; ROS labeling 2 hours after treatment; compared to IR or H2O2 alone. The format is cell-based, human. The method, then: A Reactive Oxygen Species (ROS) assay was used for individual follicle observation with 5-(and-6)-chloromethyl-2′,7′-dichlorodihydrofluorescein diacetate, acetyl ester (CM-H2DCFDA). CM-H2DCFDA is a chloromethyl derivative of […], 2′,7′-dichlorohydrofluorescein diacetate (H2DCFDA), and is useful as an indicator for general ROS in cells. ROS should be labeled after 2 hours and imaged in 20 minutes, and the protocol included dissection of the follicles first before H2O2 treatment. […] The ROS detection protocol was as follows: (1) tissue preparation and culture (2) Isolation of individual follicles (3) Vertically embedding in semisolid media (4) Antioxidant treatment (NAC) on the bulge area of the hair follicles (5) Incubation for […]. (6) Treatment with ionizing radiation (e.g., 8.0 Gray) or H2O2 (7) Incubation for 2 hrs. […] NAC was applied for 24 hours before the ionizing radiation or H2O2 treatment and then 2 hours after treatment, ROS labeling and imaging have been done. The ionizing radiation was administered at doses of 4 gy, 8 Gy, or 12 Gy. Topical administration of hydrogen peroxide was used at a dose of 3%. The ROS positive cells were counted and they were normalized to DAPI positive cells.

In experiment [3] the test system is hair follicles. Briefly: Pigmented cell counts after NAC treatment (FIG. 12). It counts as cell-based, human. Particulars: statistical significance not evaluable.
The test system of experiment [4] is melanocyte stem cells (MSCs) in the bulge areas of hair follicles of human scalp skin. Briefly: Melanocyte stem cell damage and pigmentation assay, topical application on intact human skin specimens. It counts as cell-based. Particulars: topical 24 hours, then 3% H2O2 24 hours; eight follicles per treatment. The method, then: Formulation A, placebo A, or the positive control (CPC) were topically applied to the human skin specimens for 24 hours. The specimens were next treated with 3% hydrogen peroxide (H2O2) for 24 hours at 37° C. and incubated in 5% CO2 to trigger the DNA-damage response. After 24 hours of hydrogen peroxide treatment, all portions of the hair follicles were isolated from stress treated human skin scalp. Upon isolation, the hair follicles were washed gently several times in Phosphate-buffered saline (PBS) and transferred intact into soft agar with fresh growth medium in a cell culture incubator at 37° C. and 5% CO2. Hair follicles were examined under bright field microscopy after completion of the hydrogen peroxide treatment daily from day 0 (completion of peroxide treatment) to day 7. Pigmented melanocyte stem cells (MSCs) found in the bulge areas of hair follicles were counted in the bright field view. Formulation A and Placebo A, and the positive control (CPC) were tested, and eight follicles were investigated from each treatment. Paired T-test was applied for data analysis. […] P-value of 0.05 was set as the threshold of statistical significance. […] Eight follicles were analyzed in each test set.

The structures appear in SMILES notation.

For `CC(=O)N[C@@H](CS)C(=O)O` [NAC, N-acetyl-cysteine], in experiment [1], the “pigmentation prevention at the bulge area of the follicle” value is reported as “effective on the pigmentation prevention with statistical significance”. The “ROS generation (ROS positive cells normalized to DAPI positive cells)” value in experiment [2] is “decreased compared to IR or H2O2 treatment alone”. Further, in experiment [3], the “pigmented cell counts after the NAC treatment” value is reported as “tendency showing decreased pigmented cell counts”. Moreover, the hydrogen peroxide-induced pigmentation entry in experiment [4] is “suppressed”.
